From the NIST ThermoML archive (doi:10.1021/je400679k)
Numbers after ± are expanded uncertainties.

Assay: xn = mol fraction of the nth substance listed
Conditions: 101 kPa, Liquid, Vibrating tube method

In the case of CNCCCN [N-methyl-1,3-diaminopropane] + CCN(CC)CCO, the mass density (323.15 K, x1 = 0.5998) is reported as 843.77 ± 0.46 kg/m3, the mass density (323.15 K, x1 = 0.7001) is reported as 839.765 ± 0.5 kg/m3 and the mass density (323.15 K, x1 = 0.8) is reported as 835.289 ± 0.55 kg/m3. The mass density (323.15 K, x1 = 0.8996) was 830.547 ± 0.6 kg/m3, the mass density (323.15 K, x1 = 1) was 824.673 ± 0.65 kg/m3 and the mass density (333.15 K, x1 = 0.0999) was 846.874 ± 0.26 kg/m3. For the same compound, the mass density (333.15 K, x1 = 0.2) was 845.474 ± 0.3 kg/m3, the mass density (333.15 K, x1 = 0.3001) was 843.452 ± 0.33 kg/m3 and the mass density (333.15 K, x1 = 0.3997) was 841.042 ± 0.37 kg/m3. For the same compound, the mass density (333.15 K, x1 = 0.5) was 838.132 ± 0.41 kg/m3, the mass density (333.15 K, x1 = 0.5998) was 834.751 ± 0.45 kg/m3 and the mass density (333.15 K, x1 = 0.7001) was 830.75 ± 0.5 kg/m3. It also gave a mass density (333.15 K, x1 = 0.8) of 826.265 ± 0.54 kg/m3, a mass density (333.15 K, x1 = 0.8996) of 821.487 ± 0.59 kg/m3 and a mass density (333.15 K, x1 = 1) of 815.559 ± 0.64 kg/m3. The mass density (343.15 K, x1 = 0.0999) was 837.416 ± 0.26 kg/m3, the mass density (343.15 K, x1 = 0.2) was 836.147 ± 0.3 kg/m3 and the mass density (343.15 K, x1 = 0.3001) was 834.206 ± 0.33 kg/m3. The mass density (343.15 K, x1 = 0.3997) was 831.853 ± 0.37 kg/m3, the mass density (343.15 K, x1 = 0.5) was 828.978 ± 0.41 kg/m3 and the mass density (343.15 K, x1 = 0.5998) was 825.629 ± 0.45 kg/m3. It also gave a mass density (343.15 K, x1 = 0.7001) of 821.629 ± 0.49 kg/m3, a mass density (343.15 K, x1 = 0.8) of 817.142 ± 0.54 kg/m3 and a mass density (343.15 K, x1 = 0.8996) of 812.342 ± 0.58 kg/m3. For the same compound, the mass density (343.15 K, x1 = 1) was 806.37 ± 0.63 kg/m3, the mass density (353.15 K, x1 = 0.0999) was 827.843 ± 0.26 kg/m3 and the mass density (353.15 K, x1 = 0.2) was 826.695 ± 0.29 kg/m3. It also gave a mass density (353.15 K, x1 = 0.3001) of 824.829 ± 0.33 kg/m3, a mass density (353.15 K, x1 = 0.3997) of 822.533 ± 0.36 kg/m3 and a mass density (353.15 K, x1 = 0.5) of 819.712 ± 0.4 kg/m3. The mass density (353.15 K, x1 = 0.5998) was 816.396 ± 0.45 kg/m3, the mass density (353.15 K, x1 = 0.7001) was 812.413 ± 0.49 kg/m3 and the mass density (353.15 K, x1 = 0.8) was 807.931 ± 0.53 kg/m3. For the same compound, the mass density (353.15 K, x1 = 0.8996) was 803.118 ± 0.58 kg/m3, the mass density (353.15 K, x1 = 1) was 797.093 ± 0.62 kg/m3 and the mass density (363.15 K, x1 = 0.0999) was 818.122 ± 0.26 kg/m3. For the same compound, the mass density (363.15 K, x1 = 0.2) was 817.116 ± 0.29 kg/m3, the mass density (363.15 K, x1 = 0.3001) was 815.306 ± 0.33 kg/m3 and the mass density (363.15 K, x1 = 0.3997) was 813.074 ± 0.36 kg/m3. The mass density (363.15 K, x1 = 0.5) was 810.325 ± 0.4 kg/m3, the mass density (363.15 K, x1 = 0.5998) was 807.063 ± 0.44 kg/m3 and the mass density (363.15 K, x1 = 0.7001) was 803.095 ± 0.48 kg/m3. It also gave a mass density (363.15 K, x1 = 0.8) of 798.611 ± 0.53 kg/m3, a mass density (363.15 K, x1 = 0.8996) of 793.772 ± 0.57 kg/m3 and a mass density (363.15 K, x1 = 1) of 787.723 ± 0.61 kg/m3.
